53 molecules from US9278134B2, “Dual functioning ionic liquids and salts thereof” (priority 2008, dated 2016) can be followed below.

The nature of the first data set: Thermocleavage of ionic liquid immobilized fragrance by TGA. It is filed as physicochemical. The settings on record: TGA (FIG. 6).
Take `CC(C)=CCC/C(C)=C/COC(=O)Cn1cc[n+](C)c1` [Example 44, (E)-1-(2-(3,7-dimethylocta-2,6-dienyloxy)-2-oxoethyl)-3-methyl-1H-imidazol-3-ium Docusate]: the “Thermocleavage, first decomposition step (release of geraniol)” value was “Mass loss of the first decomposition step obtained corresponds to mass percentage of Geraniol [1] in the prodrug [4]”.

The next data set is described as follows: Thermal decomposition onset (T5% onset) by TGA.
Details: not given
`CC(C)Cc1ccc(C(C)C(=O)O)cc1.COc1cccc(C2(O)CCCCC2CN(C)C)c1` (racemic) [Example 48, Tramadolium rac-ibuprofenate] yielded a T5%onset of 175 °C.
Still for that read-out and setting: the figure for `CCCCCCCCCCCCCCCC[n+]1ccccc1` [CetPy:Sal 1:1, Cetylpyridinium Salicylate] is 206 °C; for `CC(C)(Oc1ccc(Cl)cc1)C(=O)O.CN[C@@H](C)[C@H](O)c1ccccc1` [Eph:Clofib 1:1, Ephedrinium Clofibrate] it is 166 °C.
Still for that read-out and setting: the figure for `CN[C@@H](C)[C@H](O)c1ccccc1.O=C(O)c1ccccc1O` [Eph:Sal 1:1, Ephedrinium Salicylate] is 161 °C.
Still for that read-out and setting: the figure for `CCN(CC)CC(=O)Nc1c(C)cccc1C.CN[C@@H](C)[C@H](O)c1ccccc1.O=C(O)c1ccccc1O` [Example 23, Ephedrinium-lidocaine Salicylate] is 149 °C; for `CCN(CC)CC(=O)Nc1c(C)cccc1C.COc1cccc(C2(O)CCCCC2CN(C)C)c1.O=C(O)c1ccccc1O` (centres unmarked) [Example 26, Tramadolium-lidocaine Salicylate] it is 181 °C.
`CC(CN1c2ccccc2Sc2ccccc21)N(C)C.CCCCC(CC)COC(=O)CC(C(=O)OCC(CC)CCCC)S(=O)(=O)O.CN[C@@H](C)[C@H](O)c1ccccc1` (centres unmarked) [Example 27, Promethazine-ephedrinium Docusate 1:1:1] displayed a T5%onset of 164 °C.
Molecule `CC(CN1c2ccccc2Sc2ccccc21)N(C)C.CN[C@@H](C)[C@H](O)c1ccccc1.O=C(O)c1ccccc1O` (centres unmarked) [Example 29, Promethazine-ephedrinium Salicylate] registered a T5%onset of 151 °C.
`CC(=O)Nc1ccc(OC(=O)Cn2cc[n+](C)c2)cc1` [Example 31, 1-(2-(4-acetamidophenoxy)-2-oxoethyl)-3-methyl-1H-imidazol-3-ium Chloride] registered a T5%onset of 200 °C.
Still for that read-out and setting: the figure for `CC(=O)Nc1ccc(OC(=O)C[N+]2(C)CCCC2)cc1` [Example 32, 1-(2-(4-acetamidophenoxy)-2-oxoethyl)-1-methylpyrrolidinium Chloride] is 197 °C; for `CC(=O)Nc1ccc(OC(=O)C[n+]2ccccc2)cc1` [Example 33, 1-(2-(4-acetamidophenoxy)-2-oxoethyl)pyridinium Chloride] it is 198 °C.
Still for that read-out and setting: the figure for `CCCC[P+](CCCC)(CCCC)CC(=O)Oc1ccc(NC(C)=O)cc1` [Example 34, (2-(4-acetamidophenoxy)-2-oxoethyl)tributylphosphonium Chloride] is 197 °C.
Consider `CC(=O)Nc1ccc(OC(=O)C[N+]2(C)CCCC2)cc1` [Example 36, 1-(2-(4-acetamidophenoxy)-2-oxoethyl)-1-methylpyrrolidinium Docusate], for which the T5%onset was 233 °C.
Turning to `CC(=O)Nc1ccc(OC(=O)C[n+]2ccccc2)cc1` [Example 37, 1-(2-(4-acetamidophenoxy)-2-oxoethyl)pyridinium Docusate], the T5%onset was determined as 238 °C.
On the same count and under the same terms, the figure for `CCCC[PH](CCCC)(CCCC)CC(=O)Oc1ccc(NC(C)=O)cc1` [Example 38, (2-(4-acetamidophenoxy)-2-oxoethyl)tributylphosphonium Docusate] is 227 °C.
On the same count and under the same terms, the figure for `CC(=O)Nc1ccc(OC(=O)C[N+]2(C)CCCC2)cc1.CC(O)C(=O)O` [Example 40, 1-(2-(4-acetamidophenoxy)-2-oxoethyl)-1-methylpyrrolidinium Lactate] is 166 °C; for `CC(C)=CCC/C(C)=C/COC(=O)Cn1cc[n+](C)c1` [Example 43, (E)-1-(2-(3,7-dimethylocta-2,6-dienyloxy)-2-oxoethyl)-3-methyl-1H-imidazol-3-ium Chloride] it is 125 °C.
Still for that read-out and setting: the figure for `CC(C)=CCC/C(C)=C/COC(=O)Cn1cc[n+](C)c1` [Example 44, (E)-1-(2-(3,7-dimethylocta-2,6-dienyloxy)-2-oxoethyl)-3-methyl-1H-imidazol-3-ium Docusate] is 170 °C; for `CC(C)=CCC/C(C)=C/COC(=O)CCC(=O)O` [Example 46, 2-Hydroxy-N,N,N-trimethylethanaminium (E)-4-(3,7-dimethylocta-2,6-dienyloxy)-4-oxobutanoate] it is 170 °C.
Regarding `COc1cccc(C2(O)CCCCC2CN(C)C)c1.O=C(O)c1ccccc1O` (centres unmarked) [Example 47, Tramadolium Salicylate], the T5%onset was found to be 220 °C.
Same read-out and setting: the figure for `COc1cccc(C2(O)CCCCC2CN(C)C)c1.Cc1ccc(Cl)c(Nc2ccccc2C(=O)O)c1Cl` (centres unmarked) [Example 50, Tramadolium Meclofenamate] is 172 °C; for `CCCCC(CC)COC(=O)CC(C(=O)OCC(CC)CCCC)S(=O)(=O)O.COc1cccc(C2(O)CCCCC2CN(C)C)c1` (centres unmarked) [Example 51, Tramadolium Docusate] it is 226 °C; for `CC(C)Cc1ccc(C(C)C(=O)O)cc1.CN[C@@H](C)[C@H](O)c1ccccc1` (centres unmarked) [Example 57, Ephedrinium Ibuprofenate] it is 238 °C.
In the case of `CCCCC(CC)COC(=O)CC(C(=O)OCC(CC)CCCC)S(=O)(=O)O.CN[C@@H](C)[C@H](O)c1ccccc1` (centres unmarked) [Example 59, Ephedrinium Docusate], the T5%onset was 238 °C.
Still for that read-out and setting: the figure for `CC(CN1c2ccccc2Sc2ccccc21)N(C)C.CCCCC(CC)COC(=O)CC(C(=O)OCC(CC)CCCC)S(=O)(=O)O` (centres unmarked) [Example 60, Promethazine Docusate] is 246 °C; for `CCN(CC)CCNC(=O)c1ccc(N)cc1.O=C(O)c1ccccc1O` [Example 61, Procainamide Salicylate] it is 199 °C.
Same read-out and setting: the figure for `CC(C)Cc1ccc(C(C)C(=O)O)cc1.CCN(CC)CCNC(=O)c1ccc(N)cc1` [Example 62, Procainamide Ibuprofenate] is 182 °C; for `CCCCC(CC)COC(=O)CC(C(=O)OCC(CC)CCCC)S(=O)(=O)O.CCN(CC)CCNC(=O)c1ccc(N)cc1` (centres unmarked) [Example 63, Procainamide Docusate] it is 231 °C; for `CCCCC(CC)COC(=O)CC(C(=O)OCC(CC)CCCC)S(=O)(=O)[O-].CCCC[P+](CCO)(CCCC)CCCC` (centres unmarked) [Example 66, Tributylhydroxyethylphosphonium Docusate] it is 280 °C.
The same measure, in the same setting: the figure for `CCN(CC)CC(=O)Nc1c(C)cccc1C.O=C(O)c1ccccc1O` [Lid:Sal 1:1, Lidocainium Salicylate] is 161 °C.
On to `CC(C)Cc1ccc(C(C)C(=O)[O-])cc1.CCCC[P+](CCCC)(CCCC)CCCC` [P(Bu)4Ibu 1:1, Tetrabutylphosphonium Ibuprofenate], for which the T5%onset is 234 °C.
On the same count and under the same terms, the figure for Benzethonium Salicylate [Example 53] is 180 °C; for Caffeine Salicylate [Example 13] it is 111 °C.
Same read-out and setting: the figure for “Cetylpyridinium Salicylate-cinnamate [CetPySalCinnH]” is 162 °C; for Choline Docusate [Example 67] it is 189 °C.
Same read-out and setting: the figure for “Triethanolammonium Ibuprofenate [Example 64]” is 163 °C.

Staying with this data set, now noted: TGA/DSC, 25° C. to 600° C. with 5° C./min under nitrogen; cetylpyridinium salicylate-salicylic acid co-ionic liquids.
The molecule `CCCCCCCCCCCCCCCC[n+]1ccccc1` [CetPy:Sal 1:1, Cetylpyridinium Salicylate] came in with a T5%onset of 206 °C.
With “Cetylpyridinium Salicylate-salicylic Acid [CetPy:Sal 1:2]”, the T5%onset was 184 °C.
“Cetylpyridinium Salicylate-salicylic Acid [CetPy:Sal 1:3]”: the T5%onset was 162 °C.

Still in this data set, the particulars now being: TGA/DSC, 25° C. to 600° C. with 5° C./min under nitrogen; choline salicylate-salicylic acid co-ionic liquids.
The molecule `C[N+](C)(C)CCO.O=C([O-])c1ccccc1O` [Cho:Sal 1:1, choline salicylate] displayed a T5%onset of 203 °C.

Staying with this data set, now noted: TGA/DSC, 25° C. to 600° C. with 5° C./min under nitrogen; ephedrinium clofibrate co-ionic liquids prepared by melting.
`CC(C)(Oc1ccc(Cl)cc1)C(=O)O.CN[C@@H](C)[C@H](O)c1ccccc1` [Eph:Clofib 1:1, Ephedrinium Clofibrate]: the “Tonset 5%” value amounted to 169 °C.
Same read-out and setting: the figure for `CC(C)(Oc1ccc(Cl)cc1)C(=O)O.CN[C@@H](C)[C@H](O)c1ccccc1.CN[C@@H](C)[C@H](O)c1ccccc1` [Eph:Clofib 2:1, Ephedrinium Clofibrate] is 135 °C; for Ephedrinium Clofibrate [Eph:Clofib 1:2] it is 182 °C.

The data set is the same for the next values; noted with them: TGA/DSC, 25° C. to 600° C. with 5° C./min under nitrogen; lidocaine salicylate co-ionic liquids.
Take `CCN(CC)CC(=O)Nc1c(C)cccc1C` [Lid, lidocaine, reference compound]: the “Tonset 5%” value was 152 °C.
As to `CCN(CC)CC(=O)Nc1c(C)cccc1C.O=C(O)c1ccccc1O` [Lid:Sal 1:1, Lidocainium Salicylate], the “Tonset 5%” value stood at 161 °C.
Same read-out and setting: the figure for `O=C(O)c1ccccc1O` [Salicylic acid, reference compound] is 134 °C; for Lidocaine Salicylates [Lid:Sal 1.5:1] it is 169 °C; for Lidocaine Salicylates [Lid:Sal 1:1.5] it is 142 °C.
Same read-out and setting: the figure for Lidocaine Salicylates [Lid:Sal 1:2.5] is 132 °C; for Lidocaine Salicylates [Lid:Sal 1:2] it is 138 °C.
Turning to Lidocaine Salicylates [Lid:Sal 1:3], the “Tonset 5%” value stood at 128 °C.
For Lidocaine Salicylates [Lid:Sal 2.5:1], the “Tonset 5%” value came out at 137 °C.
The same measure, in the same setting: the figure for Lidocaine Salicylates [Lid:Sal 2:1] is 154 °C; for Lidocaine Salicylates [Lid:Sal 3:1] it is 161 °C.

The same data set, now with this note: TGA/DSC, 25° C. to 600° C. with 5° C./min under nitrogen; tetrabutylphosphonium ibuprofenate-ibuprofenic co-ionic liquids.
Regarding `CC(C)Cc1ccc(C(C)C(=O)[O-])cc1.CCCC[P+](CCCC)(CCCC)CCCC` [P(Bu)4Ibu 1:1, Tetrabutylphosphonium Ibuprofenate], the T5%onset was determined as 234 °C.

The same data set, now with this note: TGA/DSC, 25° C. to 600° C. with 5° C./min under nitrogen; tetrabutylphosphonium lactate-lactic acid co-ionic liquids.
In turn, `CCCC[P+](CCCC)(CCCC)CCCC` [P(Bu)4Lac 1:1, tetrabutylphosphonium lactate] had a T5%onset of 262.
The same measure, in the same setting: the figure for `CCCC[P+](CCCC)(CCCC)CCCC` [P(Bu)4Lac 1:2, Tetrabutylphosphonium Lactate-lactic Acid] is 215.

Staying with this data set, now noted: TGA/DSC, 25° C. to 600° C. with 5° C./min under nitrogen; tetrabutylphosphonium salicylate-salicylic acid co-ionic liquids.
Regarding `O=C(O)c1ccccc1O` [Salicylic acid, reference compound], the T5%onset came out at 136 °C.
